Experimental data: ChEMBL document CHEMBL1201862, “PubChem BioAssay data set” (2004)
Calls of active or inactive are those of the source.

Tests used:
Fatty acid synthase [1] = target: T1, Fatty acid synthase (Homo sapiens, UniProt P49327); assay: inhibition of human FAS-TE enzyme activity – biochemical, endpoint fluorescence intensity, uHTS hits, dose response (AID 624327); format: functional;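 note: fluorescence from hydrolysis of an O-methyl fluorescein acyl ester substrate by the enzyme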
Fatty acid synthase [2] = target: T1, Fatty acid synthase; assay: inhibition of human FAS-TE enzyme activity – biochemical, kinetic fluorescence intensity, dose response (AID 624326); format: functional;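 note: rate of fluorescence rise from hydrolysis of a fluorogenic O-methyl fluorescein ester substrate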
Leucine aminopeptidase = target: T2, Leucine aminopeptidase (Plasmodium falciparum 3D7, UniProt Q8IL11); assay: P. falciparum M17LAP inhibitors, primary screen, biochemical, fluorogenic H-Leu-NHMec substrate, 1536-well (AID 1619); format: functional
T2 sequence (Q8IL11 whole entry): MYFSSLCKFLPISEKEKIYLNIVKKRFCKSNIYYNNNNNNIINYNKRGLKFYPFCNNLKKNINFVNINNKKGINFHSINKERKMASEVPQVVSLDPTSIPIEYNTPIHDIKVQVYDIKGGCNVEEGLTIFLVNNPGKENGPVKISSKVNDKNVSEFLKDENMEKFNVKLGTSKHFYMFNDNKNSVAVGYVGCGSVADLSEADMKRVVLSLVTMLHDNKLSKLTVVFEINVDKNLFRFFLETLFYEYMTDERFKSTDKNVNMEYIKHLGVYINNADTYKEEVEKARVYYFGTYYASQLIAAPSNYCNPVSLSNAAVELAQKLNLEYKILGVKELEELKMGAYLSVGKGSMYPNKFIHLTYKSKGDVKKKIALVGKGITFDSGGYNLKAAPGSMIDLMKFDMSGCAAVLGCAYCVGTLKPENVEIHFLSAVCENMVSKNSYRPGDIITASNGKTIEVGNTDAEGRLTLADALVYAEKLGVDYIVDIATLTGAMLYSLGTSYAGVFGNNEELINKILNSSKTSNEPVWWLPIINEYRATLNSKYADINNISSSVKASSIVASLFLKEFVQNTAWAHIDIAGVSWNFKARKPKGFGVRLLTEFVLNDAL

[3] = target: Induced myeloid leukemia cell differentiation protein Mcl-1 (Homo sapiens, UniProt Q07820); format: functional
Chain of Induced myeloid leukemia cell differentiation protein Mcl-1 (Q07820 whole entry): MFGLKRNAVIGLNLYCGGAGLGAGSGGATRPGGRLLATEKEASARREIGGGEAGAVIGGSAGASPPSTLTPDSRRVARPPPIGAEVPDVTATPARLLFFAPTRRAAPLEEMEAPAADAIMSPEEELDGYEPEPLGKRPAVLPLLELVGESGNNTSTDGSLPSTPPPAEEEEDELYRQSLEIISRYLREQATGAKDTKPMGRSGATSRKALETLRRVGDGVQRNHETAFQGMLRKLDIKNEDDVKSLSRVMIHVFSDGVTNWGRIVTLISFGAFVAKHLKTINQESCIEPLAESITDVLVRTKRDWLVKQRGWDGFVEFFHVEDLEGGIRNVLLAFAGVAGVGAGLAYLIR

[4] = microbe, parasite or virus in culture; format: functional; details: Mycobacterium tuberculosis
[5] = growth inhibition of yeast DHODH-expressing 3D7 parasites – SYBR Green, dry powder samples, dose response (AID 1159570); format: functional, cell-based;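 note: parasite growth measured after 72 hours of compound exposure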
[6] = Dd2 malaria parasite growth inhibition potency – SYBR Green, dry powder samples, dose response (AID 1159566); format: functional, cell-based;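 note: potency for growth inhibition with lower SYBR green DNA signal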
[7] = P. falciparum Dd2 growth inhibitors, dose response, SYBR Green, cherry-picked samples (AID 1159567); format: functional, cell-based
[8] = growth inhibition of PfATP4-mutant resistant parasites – NITD609-resistant line, SYBR Green, dry powder, dose response (AID 1159571); format: functional, cell-based;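 note: parasites synchronized at ring stage by sorbitol before testing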
[9] = toxicity to human HepG2 hepatoma cells – cell-based, plate reader, dry powder samples, cytotoxicity control, dose response (AID 1159569); format: functional;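 note: inhibitor potency with signal falling toward the positive control level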
[10] = target: T3, Histone-lysine N-methyltransferase NSD2 (Homo sapiens, UniProt O96028); format: biochemical
T3 sequence (O96028 whole entry): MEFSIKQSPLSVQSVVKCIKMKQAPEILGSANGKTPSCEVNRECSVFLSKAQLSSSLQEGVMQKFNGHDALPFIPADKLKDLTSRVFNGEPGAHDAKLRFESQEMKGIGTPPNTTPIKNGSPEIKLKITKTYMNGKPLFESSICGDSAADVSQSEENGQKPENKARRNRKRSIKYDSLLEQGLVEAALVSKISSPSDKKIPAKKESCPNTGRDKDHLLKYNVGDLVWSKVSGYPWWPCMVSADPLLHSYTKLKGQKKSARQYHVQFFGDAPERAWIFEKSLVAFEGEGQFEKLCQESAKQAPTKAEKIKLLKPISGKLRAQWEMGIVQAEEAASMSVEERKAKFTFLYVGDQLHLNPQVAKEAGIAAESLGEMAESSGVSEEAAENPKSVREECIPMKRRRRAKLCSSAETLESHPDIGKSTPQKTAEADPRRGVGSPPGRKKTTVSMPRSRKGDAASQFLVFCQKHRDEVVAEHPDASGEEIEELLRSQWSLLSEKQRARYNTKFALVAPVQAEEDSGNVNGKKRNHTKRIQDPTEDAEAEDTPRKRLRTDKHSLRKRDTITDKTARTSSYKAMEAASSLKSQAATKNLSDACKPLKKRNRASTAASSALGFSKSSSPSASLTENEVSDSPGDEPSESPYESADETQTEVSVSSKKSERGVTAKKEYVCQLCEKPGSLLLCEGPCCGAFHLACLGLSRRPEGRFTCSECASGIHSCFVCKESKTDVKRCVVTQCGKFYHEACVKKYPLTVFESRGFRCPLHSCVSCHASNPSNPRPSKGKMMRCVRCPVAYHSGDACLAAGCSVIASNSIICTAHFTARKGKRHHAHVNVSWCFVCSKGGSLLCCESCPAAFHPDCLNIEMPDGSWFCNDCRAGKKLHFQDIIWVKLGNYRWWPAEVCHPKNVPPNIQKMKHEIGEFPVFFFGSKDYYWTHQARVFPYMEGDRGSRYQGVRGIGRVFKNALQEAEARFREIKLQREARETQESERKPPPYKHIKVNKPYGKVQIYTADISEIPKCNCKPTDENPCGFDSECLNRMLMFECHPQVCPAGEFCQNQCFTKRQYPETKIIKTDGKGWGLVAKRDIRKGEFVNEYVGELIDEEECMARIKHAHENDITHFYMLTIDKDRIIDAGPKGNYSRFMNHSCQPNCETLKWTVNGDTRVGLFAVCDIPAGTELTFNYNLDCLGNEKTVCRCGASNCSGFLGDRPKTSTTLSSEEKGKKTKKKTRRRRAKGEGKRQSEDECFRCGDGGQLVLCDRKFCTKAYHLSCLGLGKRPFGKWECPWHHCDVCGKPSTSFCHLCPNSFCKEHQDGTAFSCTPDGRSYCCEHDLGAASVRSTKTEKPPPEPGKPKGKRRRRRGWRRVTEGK

cells = format: functional

T1 sequence (P49327 whole entry): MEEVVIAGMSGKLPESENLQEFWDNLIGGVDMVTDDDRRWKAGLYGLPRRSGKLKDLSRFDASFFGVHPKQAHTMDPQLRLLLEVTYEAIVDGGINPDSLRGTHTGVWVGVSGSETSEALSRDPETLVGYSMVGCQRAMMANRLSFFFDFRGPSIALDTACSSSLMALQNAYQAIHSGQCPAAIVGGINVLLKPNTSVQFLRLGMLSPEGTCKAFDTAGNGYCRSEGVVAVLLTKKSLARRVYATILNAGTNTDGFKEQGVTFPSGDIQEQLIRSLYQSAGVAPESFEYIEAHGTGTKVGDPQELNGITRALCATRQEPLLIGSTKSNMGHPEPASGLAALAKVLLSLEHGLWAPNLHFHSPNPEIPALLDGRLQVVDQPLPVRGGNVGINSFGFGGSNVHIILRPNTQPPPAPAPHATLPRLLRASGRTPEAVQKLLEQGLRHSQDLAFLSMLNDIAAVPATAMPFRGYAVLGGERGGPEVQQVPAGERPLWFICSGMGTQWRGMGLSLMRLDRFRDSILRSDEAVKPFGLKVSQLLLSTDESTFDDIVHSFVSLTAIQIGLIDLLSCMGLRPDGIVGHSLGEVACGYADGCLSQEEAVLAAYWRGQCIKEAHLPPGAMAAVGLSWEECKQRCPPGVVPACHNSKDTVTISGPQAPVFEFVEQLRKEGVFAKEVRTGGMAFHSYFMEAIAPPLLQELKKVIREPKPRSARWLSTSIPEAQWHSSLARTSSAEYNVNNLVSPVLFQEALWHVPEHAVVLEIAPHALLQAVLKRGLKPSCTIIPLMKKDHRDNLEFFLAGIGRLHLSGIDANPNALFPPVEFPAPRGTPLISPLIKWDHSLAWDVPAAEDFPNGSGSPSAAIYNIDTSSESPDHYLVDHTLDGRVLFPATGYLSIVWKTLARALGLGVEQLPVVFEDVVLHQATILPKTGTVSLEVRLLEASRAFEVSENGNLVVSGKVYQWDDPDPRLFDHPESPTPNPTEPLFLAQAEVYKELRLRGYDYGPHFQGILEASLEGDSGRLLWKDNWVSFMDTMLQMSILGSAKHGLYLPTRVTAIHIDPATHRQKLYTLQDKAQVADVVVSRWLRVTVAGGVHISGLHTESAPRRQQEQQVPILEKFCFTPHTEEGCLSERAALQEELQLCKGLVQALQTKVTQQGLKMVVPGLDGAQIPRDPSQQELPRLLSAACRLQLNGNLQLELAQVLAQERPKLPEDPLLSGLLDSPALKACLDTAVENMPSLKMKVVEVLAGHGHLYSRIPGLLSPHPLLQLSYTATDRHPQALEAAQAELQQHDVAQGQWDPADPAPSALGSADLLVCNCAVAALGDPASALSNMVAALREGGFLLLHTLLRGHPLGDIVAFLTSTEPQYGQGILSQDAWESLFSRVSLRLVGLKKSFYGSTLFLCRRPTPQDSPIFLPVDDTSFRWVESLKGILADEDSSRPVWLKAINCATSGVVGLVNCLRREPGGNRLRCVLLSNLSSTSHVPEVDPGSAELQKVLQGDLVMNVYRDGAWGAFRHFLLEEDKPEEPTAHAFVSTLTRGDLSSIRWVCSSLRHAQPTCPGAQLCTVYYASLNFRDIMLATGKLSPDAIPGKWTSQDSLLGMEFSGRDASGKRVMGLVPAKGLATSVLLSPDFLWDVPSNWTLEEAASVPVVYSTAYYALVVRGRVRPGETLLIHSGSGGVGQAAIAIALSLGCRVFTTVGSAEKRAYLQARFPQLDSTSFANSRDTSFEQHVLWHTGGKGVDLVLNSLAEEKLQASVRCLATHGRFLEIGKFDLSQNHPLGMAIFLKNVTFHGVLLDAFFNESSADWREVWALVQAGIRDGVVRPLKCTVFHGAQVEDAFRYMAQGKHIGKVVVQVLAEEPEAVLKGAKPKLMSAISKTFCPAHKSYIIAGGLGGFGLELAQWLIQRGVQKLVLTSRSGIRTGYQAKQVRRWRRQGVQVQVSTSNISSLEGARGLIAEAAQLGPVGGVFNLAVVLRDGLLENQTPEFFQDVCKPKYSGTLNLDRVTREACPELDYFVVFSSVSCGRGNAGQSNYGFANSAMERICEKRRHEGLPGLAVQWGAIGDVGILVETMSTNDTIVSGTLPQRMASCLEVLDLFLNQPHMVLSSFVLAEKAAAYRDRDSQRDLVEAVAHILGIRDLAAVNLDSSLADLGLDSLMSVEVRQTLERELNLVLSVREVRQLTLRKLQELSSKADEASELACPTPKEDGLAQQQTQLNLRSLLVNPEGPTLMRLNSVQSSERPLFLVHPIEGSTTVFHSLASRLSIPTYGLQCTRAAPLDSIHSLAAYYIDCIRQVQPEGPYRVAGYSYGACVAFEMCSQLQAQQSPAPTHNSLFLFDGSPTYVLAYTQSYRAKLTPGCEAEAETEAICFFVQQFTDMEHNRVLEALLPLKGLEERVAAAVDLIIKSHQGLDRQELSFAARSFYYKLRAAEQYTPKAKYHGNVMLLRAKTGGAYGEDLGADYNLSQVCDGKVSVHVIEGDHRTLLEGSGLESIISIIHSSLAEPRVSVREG

O=c1oc(-c2ccccc2F)nc2scc(-c3ccccc3)c12
IC50 (Fatty acid synthase [1]): 1190 nM (active) | IC50 (Fatty acid synthase [2]): 638 nM (active)

Cc1cc(O)nc(SCC(=O)Nc2cccc3ccccc23)c1C#N
IC50 (Leucine aminopeptidase): 2200 nM (active)

O=C1Oc2ccccc2C(=O)/C1=C/c1c[nH]c2ccccc12
IC50 [3]: 5560 nM (active) | CC50 [4]: 30900 nM (active)

O=C(/C=C/c1cccc([N+](=O)[O-])c1)NCc1ccc2c(c1)OCO2
IC50 (Fatty acid synthase [1]): 2330 nM (active) | IC50 (Fatty acid synthase [2]): 2720 nM (active)

O[C@H]1C[C@H](c2ccc(Cl)cc2)N(CC2CCCCC2)C[C@@H]1n1cc(C2CC2)nn1
IC50 (Fatty acid synthase [1]): 12000 nM (active) | IC50 (Fatty acid synthase [2]): 13100 nM (active)

O=C(CN1C(=O)C2CC=CCC2C1=O)NCC1COc2ccccc2O1 (stereo not drawn)
IC50 (Leucine aminopeptidase): 8660 nM (active)

CCN(c1cccc(C)c1)S(=O)(=O)c1ccc2[nH]c(=O)c(=O)[nH]c2c1
IC50 (Leucine aminopeptidase): 1620 nM (active)

COc1ccc2c3c(n(C)c2c1)[C@@H](CO)NCC31CCN(Cc2ccc(-c3ccccn3)cc2)CC1
AC50 [5]: 447 nM (active) | AC50 [6]: 440 nM (active) | AC50 [7]: 696 nM (active) | AC50 [8]: 560 nM (active) | AC50 [9]: 19400 nM (active)

C[C@@H]1CN([C@H](C)CO)C(=O)c2ccccc2-c2ccccc2CO[C@H]1CN(C)C(=O)Nc1cccc(C(F)(F)F)c1
AC50 [5]: 1190 nM (active) | AC50 [6]: 1030 nM (active) | AC50 [7]: 1450 nM (active) | AC50 [8]: 3230 nM (active) | AC50 [9]: 86300 nM (active)

CCN1CCC(CNCc2cn(-c3ccc(OC)cc3)nc2-c2ccccc2Cl)C1 (stereo not drawn)
AC50 [10]: > 20000 nM (inactive)

C[C@@H]1CN([C@@H](C)CO)C(=O)c2c(c3ccccc3n2C)-c2ccccc2CO[C@@H]1CN(C)Cc1ccc(Oc2ccccc2)cc1
AC50 [5]: 3440 nM (active) | AC50 [6]: 590 nM (active) | AC50 [7]: 1300 nM (active) | AC50 [8]: 906 nM (active) | AC50 [9]: 22800 nM (active)

CCCCN1C(=O)NC(=O)/C(=C/c2ccc[nH]2)C1=O
IC50 (cells): 1460 nM (active) | CC50 [4]: > 40000 nM (active)

C[C@@H]1CN([C@@H](C)CO)C(=O)c2c(c3ccccc3n2C)-c2ccccc2CO[C@@H]1CN(C)C(=O)c1cc(Cl)cc(Cl)c1
AC50 [5]: 2020 nM (active) | AC50 [6]: 1880 nM (active) | AC50 [7]: 2110 nM (active) | AC50 [8]: 1500 nM (active) | AC50 [9]: 22400 nM (active)

C=CCc1c(C)nc(SC)nc1Nc1ccc(C(C)=O)cc1
CC50 [4]: > 40000 nM (active)

CCCN(CCC)CCCNC(=O)c1cn(CC)c2ccc(S(=O)(=O)N3CCc4ccccc4C3)cc2c1=O
AC50 [10]: > 20000 nM (inactive)

CC(C)COc1ccc(C(=O)N/C(=C/c2cccc([N+](=O)[O-])c2)C(=O)O)cc1
IC50 (Fatty acid synthase [1]): 14200 nM (active) | IC50 (Fatty acid synthase [2]): 9300 nM (active)

O=C(Nc1ccc(-c2ccccc2)cc1)[C@H]1[C@H](CO)[C@H]2Cn3c(cccc3=O)[C@@H]1N2Cc1ccccc1
AC50 [5]: 1240 nM (active) | AC50 [6]: 1030 nM (active) | AC50 [7]: 1440 nM (active) | AC50 [8]: 921 nM (active) | AC50 [9]: 48400 nM (active)
